Assay results published in patent US9896441B2 (Lycera Corporation, priority 2014, dated 2018).

Legend:
[1] = target: T1, Gal4-RORγ-LBD (Homo sapiens, UniProt P51449); assay: Gal4-RORγ Luciferase Reporter Assay in HEK-293T Cells; assay type: cell-based; details: HEK-293 cells, luciferase reporter, with ursolic acid
T1 construct: expressed in transfected cells
T1 sequence (P51449 269-508 limits assumed): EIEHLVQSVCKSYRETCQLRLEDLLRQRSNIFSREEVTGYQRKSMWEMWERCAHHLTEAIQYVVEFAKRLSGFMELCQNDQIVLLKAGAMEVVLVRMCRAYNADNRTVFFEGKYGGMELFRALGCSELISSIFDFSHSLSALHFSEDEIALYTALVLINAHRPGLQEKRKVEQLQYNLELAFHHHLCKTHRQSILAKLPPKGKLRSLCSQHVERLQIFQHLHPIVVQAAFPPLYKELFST
How it was run: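 Max Response was taken as the upper plateau of a 4-parameter logistic fit of luciferase signal, normalized to 100 for wells without ursolic acid or compound. Transiently Gal4-RORγ-LBD/Gal4-luc transfected HEK-293 cells carrying […] ursolic acid were incubated with test compounds (0.2% DMSO) overnight at 37 °C and read with One-Glo.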

[2] = target: T2, RORγ-LBD (Homo sapiens, UniProt P51449); assay: RORγ-Ligand Binding Domain (LBD) TR-FRET Assay; assay type: biochemical; details: RORγ-LBD TR-FRET
T2 construct: made in house; host or cells: SF9 cells (baculovirus); used as diluted lysate
T2 sequence (P51449 269-508 limits assumed): T1 sequence (P51449 269-508 limits assumed)
How it was run: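 TR-FRET read-out using a biotin-tagged SRC1 coactivator LXXLL peptide (200 nM final), with the antagonist ursolic acid present at 2 μM final. Receptor is His-tagged LBD expressed in SF9 cells, ~3 nM final in pH 7.0 Tris/KCl/EDTA/DTT/BSA buffer; compounds in 1% DMSO final.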

| Structure (SMILES) | EC50 [1] | EC50 [2] |
| --- | --- | --- |
| CCOc1nn(CC)cc1S(=O)(=O)N1C[C@H](CCC(=O)OC)Oc2ccc(/C=C/c3ccccc3SC)cc21 [Example 89AV, (S,E)-methyl 3-(4-((3-ethoxy-1-ethyl-1H-pyrazol-4-yl)sulfonyl)-6-(2-(methylthio)styryl)-3,4-dihydro-2H-benzo[b][1,4]oxazin-2-yl)propanoate] | < 500 nM | < 500 nM |
| CCc1ccccc1/C=C/c1ccc2c(c1)N(S(=O)(=O)c1cccc(OC(F)F)c1)C[C@H](CCC(=O)O)O2 [Example 89AW, (S,E)-3-(4-((3-(difluoromethoxy)phenyl)sulfonyl)-6-(2-ethylstyryl)-3,4-dihydro-2H-benzo[b][1,4]oxazin-2-yl)propanoic acid] | 500 to 5000 nM | < 500 nM |
| CCc1ccccc1/C=C/c1ccc2c(c1)N(S(=O)(=O)c1cccc(OC(F)F)c1)C[C@H](CCC(=O)OC)O2 [Example 89AX, (S,E)-methyl 3-(4-((3-(difluoromethoxy)phenyl)sulfonyl)-6-(2-ethylstyryl)-3,4-dihydro-2H-benzo[b][1,4]oxazin-2-yl)propanoate] | 500 to 5000 nM | < 500 nM |
| COc1ccccc1/C=C/c1ccc2c(c1)N(S(=O)(=O)c1cccc(OC(F)F)c1)C[C@H](CCC(=O)O)O2 [Example 89AY, (S,E)-3-(4-((3-(difluoromethoxy)phenyl)sulfonyl)-6-(2-methoxystyryl)-3,4-dihydro-2H-benzo[b][1,4]oxazin-2-yl)propanoic acid] | 500 to 5000 nM | < 500 nM |
| COC(=O)CC[C@H]1CN(S(=O)(=O)c2cccc(OC(F)F)c2)c2cc(/C=C/c3ccccc3OC)ccc2O1 [Example 89AZ, (S,E)-methyl 3-(4-((3-(difluoromethoxy)phenyl)sulfonyl)-6-(2-methoxystyryl)-3,4-dihydro-2H-benzo[b][1,4]oxazin-2-yl)propanoate] | < 500 nM | < 500 nM |
| COC(=O)CC[C@H]1CN(S(=O)(=O)c2cccc(OC(F)F)c2)c2cc(/C=C/c3c(F)cccc3Cl)ccc2O1 [Example 89B, (S,E)-methyl 3-(6-(2-chloro-6-fluorostyryl)-4-((3-(difluoromethoxy)phenyl)sulfonyl)-3,4-dihydro-2H-benzo[b][1,4]oxazin-2-yl)propanoate] | 500 to 5000 nM | < 500 nM |
| CCOc1nn(CC)cc1S(=O)(=O)N1C[C@H](CCC(=O)O)Oc2ccc(/C=C/c3ccccc3OC(F)(F)F)cc21 [Example 89BA, (S,E)-3-(4-((3-ethoxy-1-ethyl-1H-pyrazol-4-yl)sulfonyl)-6-(2-(trifluoromethoxy)styryl)-3,4-dihydro-2H-benzo[b][1,4]oxazin-2-yl)propanoic acid] | 500 to 5000 nM | < 500 nM |
| CCOc1nn(CC)cc1S(=O)(=O)N1C[C@H](CCC(=O)OC)Oc2ccc(/C=C/c3ccccc3OC(F)(F)F)cc21 [Example 89BB, (S,E)-methyl 3-(4-((3-ethoxy-1-ethyl-1H-pyrazol-4-yl)sulfonyl)-6-(2-(trifluoromethoxy)styryl)-3,4-dihydro-2H-benzo[b][1,4]-oxazin-2-yl)propanoate] | 500 to 5000 nM | < 500 nM |
| CCOc1nn(CC)cc1S(=O)(=O)N1C[C@H](CCC(=O)O)Oc2ccc(/C=C/c3ccccc3Cl)cc21 [Example 89BC, (S,E)-3-(6-(2-chlorostyryl)-4-((3-ethoxy-1-ethyl-1H-pyrazol-4-yl)sulfonyl)-3,4-dihydro-2H-benzo[b][1,4]oxazin-2-yl)propanoic acid] | 500 to 5000 nM | < 500 nM |
| CCOc1nn(CC)cc1S(=O)(=O)N1C[C@H](CCC(=O)OC)Oc2ccc(/C=C/c3ccccc3Cl)cc21 [Example 89BD, (S,E)-methyl 3-(6-(2-chlorostyryl)-4-((3-ethoxy-1-ethyl-1H-pyrazol-4-yl)sulfonyl)-3,4-dihydro-2H-benzo[b][1,4]-oxazin-2-yl)propanoate] | > 10000 nM | < 500 nM |
| Cc1ccc(/C=C/c2ccc3c(c2)N(S(=O)(=O)c2cccc(OC(F)F)c2)C[C@H](CCC(=O)O)O3)cc1 [Example 89BE, (S,E)-3-(4-((3-(difluoromethoxy)phenyl)sulfonyl)-6-(4-methylstyryl)-3,4-dihydro-2H-benzo[b][1,4]oxazin-2-yl)propanoic acid] | > 10000 nM | 500 to 5000 nM |
| COC(=O)CC[C@H]1CN(S(=O)(=O)c2cccc(OC(F)F)c2)c2cc(/C=C/c3ccc(C)cc3)ccc2O1 [Example 89BF, (S,E)-methyl 3-(4-((3-(difluoromethoxy)phenyl)sulfonyl)-6-(4-methylstyryl)-3,4-dihydro-2H-benzo[b][1,4]oxazin-2-yl)propanoate] | > 10000 nM | 500 to 5000 nM |
| Cc1cc(O)cc(C)c1/C=C/c1ccc2c(c1)N(S(=O)(=O)c1cccc(C(F)(F)F)c1)C[C@H](CCC(=O)O)O2 [Example 89BG, (S,E)-3-(6-(4-hydroxy-2,6-dimethylstyryl)-4-((3-(trifluoromethyl)phenyl)sulfonyl)-3,4-dihydro-2H-benzo[b][1,4]oxazin-2-yl)propanoic acid] | 500 to 5000 nM | < 500 nM |
| O=C(O)CC[C@H]1CN(S(=O)(=O)c2cccc(C(F)(F)F)c2)c2cc(/C=C/c3ccc(Cl)cc3F)ccc2O1 [Example 89BH, (S,E)-3-(6-(4-chloro-2-fluorostyryl)-4-((3-(trifluoromethyl)phenyl)sulfonyl)-3,4-dihydro-2H-benzo[b][1,4]oxazin-2-yl)propanoic acid] | > 10000 nM | < 500 nM |
| O=C(O)CC[C@H]1CN(S(=O)(=O)c2cccc(C(F)(F)F)c2)c2cc(/C=C/c3ncccc3C(F)(F)F)ccc2O1 [Example 89BI, (S,E)-3-(4-((3-(trifluoromethyl)phenyl)sulfonyl)-6-(2-(3-(trifluoromethyl)pyridin-2-yl)vinyl)-3,4-dihydro-2H-benzo[b][1,4]oxazin-2-yl)propanoic acid] | < 500 nM | < 500 nM |
| Cc1cccnc1/C=C/c1ccc2c(c1)N(S(=O)(=O)c1cccc(C(F)(F)F)c1)C[C@H](CCC(=O)O)O2 [Example 89BJ, (S,E)-3-(6-(2-(3-methylpyridin-2-yl)vinyl)-4-((3-(trifluoromethyl)phenyl)sulfonyl)-3,4-dihydro-2H-benzo[b][1,4]oxazin-2-yl)propanoic acid] | 500 to 5000 nM | < 500 nM |
| O=C(O)CC[C@H]1CN(S(=O)(=O)c2cccc(C(F)(F)F)c2)c2cc(/C=C/c3ncccc3Cl)ccc2O1 [Example 89BK, (S,E)-3-(6-(2-(3-chloropyridin-2-yl)vinyl)-4-((3-(trifluoromethyl)phenyl)sulfonyl)-3,4-dihydro-2H-benzo[b][1,4]oxazin-2-yl)propanoic acid] | < 500 nM | < 500 nM |
| Cc1cccc2c1c(/C=C/c1ccc3c(c1)N(S(=O)(=O)c1cccc(C(F)(F)F)c1)C[C@H](CCC(=O)O)O3)nn2C [Example 89BN, (S,E)-3-(6-(2-(1,4-dimethyl-1H-indazol-3-yl)vinyl)-4-((3-(trifluoromethyl)phenyl)sulfonyl)-3,4-dihydro-2H-benzo[b][1,4]oxazin-2-yl)propanoic acid] | 500 to 5000 nM | < 500 nM |
| Cn1nc(/C=C/c2ccc3c(c2)N(S(=O)(=O)c2cccc(C(F)(F)F)c2)C[C@H](CCC(=O)O)O3)c2c(Cl)cccc21 [Example 89BO, (S,E)-3-(6-(2-(4-chloro-1-methyl-1H-indazol-3-yl)vinyl)-4-((3-(trifluoromethyl)phenyl)sulfonyl)-3,4-dihydro-2H-benzo[b][1,4]-oxazin-2-yl)propanoic acid] | 500 to 5000 nM | < 500 nM |
